According to patent US8673914B2, “Use of phosphodiesterase inhibitors for treating multidrug resistance” (St. John's University, priority 2011, dated 2014):
Read-outs that look alike come from different tables or passages of the source. Marks after values point to notes of the source that are not given here.

Legend:
HEK/MRP7 = assay: MTT cytotoxicity assay (Example 4); format: cell-based; conditions: alone;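 on fold-resistance, docetaxel: drug IC50 in HEK/MRP7 divided by IC50 in parental HEK293-pcDNA3.1 cells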;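 on fold-resistance, vinblastine: drug IC50 in HEK/MRP7 divided by IC50 in parental HEK293-pcDNA3.1 cells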
Experimental: (§1) The MRP7 cDNA was generously provided by Dr. Gary Kruh (University of Illinois, Chicago, Ill.) and inserted into the pcDNA3.1 expression vector. […] Individual colonies were selected in medium containing G418 (1 mg/ml) and cultured for further analysis.
(§2) MTT colorimetric assay was performed to analyze the drug sensitivity as previously described (Shi et al. (2007) Cancer Res. 67:11012-20). HEK293-pcDNA3.1 and HEK/MRP7 cells were seeded into 96-well plates in triplicate at 6000 cells/well.
(§3) After drug incubation of 68 h, 20 μl MTT solution (4 mg/ml) was added into each well. […] The Bliss method was used to calculate the IC50 values according to survival curves.

[1] = MTT cytotoxicity assay (Example 4); format: cell-based; conditions: human, HEK/MRP7, alone;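 on fold-resistance, docetaxel: drug IC50 in HEK/MRP7 divided by IC50 in parental HEK293-pcDNA3.1 cells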;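 on fold-resistance, vinblastine: drug IC50 in HEK/MRP7 divided by IC50 in parental HEK293-pcDNA3.1 cells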
Experimental: as §1, §2, §3

HEK 293-pcDNA-3.1 = assay: MTT cytotoxicity assay (Example 4); format: cell-based
Experimental: as §1, §2, §3

HEK/MRP1 (ABCC1) = assay: MTT cytotoxicity/reversal assay (Example 1); format: cell-based; conditions: +10 μM reversal agent
Experimental: The KB-C2 and KB-3-1 were kindly provided by Dr. Akiyama (Kagoshima University, Japan). […] Similarly, the HEK/MRP1 (ABCC1) and HEK/ABCB1 cells were generated by transfecting the HEK293 cells with either the MRP1 expression vector or the ABCB1 expression vector. All of the cell lines were grown in Dulbecco's modified Eagle's medium (DMEM) supplemented with 10% bovine serum, 100 units/ml penicillin, and […] streptomycin in a humidified incubator containing 5% CO2 at 37° C.
(§4) The MTT assay was used to assess cytotoxicity. The cultured cells were harvested with trypsin and resuspended in a final concentration of 4×10^3 cells/well for KB-3-1; 7.5×10^3 cells/well for KB-C2; and 8×10^3 for all of the other cell lines used in this study. Cells were seeded evenly in 96-well multiplates. […] After 68 h of incubation, 20 μl of the MTT solution (4 mg/ml) was added to each well, and the plate was further incubated for 4 h at 37° C., allowing viable cells to convert the yellow-colored MTT into dark-blue formazan crystals. Subsequently, the medium was discarded, and 100 μl of DMSO was added into each well to dissolve the formazan crystals, generating purple color. The absorbance was determined at 570 nm by an OPSYS Microplate Reader from DYNEX Technologies, Inc. (Chantilly, Va.). […] The degree of the reversal of multidrug resistance (MDR) was calculated by dividing the IC50 of an anticancer drug, e.g., an antineoplastic or chemotherapeutic drug (agent, compound), in a cell type in the absence of a reversal agent by the IC50 of the anticancer drug in the same cell type in the presence of the reversal agent. The IC50 values were calculated from survival curves using the Bliss method.

HEK293/pcDNA3.1 = assay: MTT cytotoxicity/reversal assay (Example 1); format: cell-based
Experimental: (§5) The KB-C2 and KB-3-1 were kindly provided by Dr. Akiyama (Kagoshima University, Japan). HEK293-pcDNA3.1 and wild-type HEK/ABCG2 transfected cells were established by selection with G418 after transfecting HEK293 with either (1) empty pcDNA3.1 vector or (2) pcDNA3.1 vector containing full length of ABCG2 coding arginine (R) at amino acid position 482, and were then cultured in a medium with 2 mg/ml of G418 (ABCG2-482-R2 cells). Similarly, the HEK/MRP1 (ABCC1) and HEK/ABCB1 cells were generated by transfecting the HEK293 cells with either the MRP1 expression vector or the ABCB1 expression vector. All of the cell lines were grown in Dulbecco's modified Eagle's medium (DMEM) supplemented with 10% bovine serum, 100 units/ml penicillin, and […] streptomycin in a humidified incubator containing 5% CO2 at 37° C.
as §4

KB-3-1 [2] = assay: MTT cytotoxicity/reversal assay (Example 1); format: cell-based, human; conditions: read-out: IC50 of cisplatin, alone
Experimental: as §5, §4

S1/FLV5000 = assay: cells; format: cell-based; conditions: read-out: IC50 of cisplatin; S1/FLV5000; alone
Experimental: (§6) The ABCB1-overexpressing drug resistant cell line KB-V1 (generously provided by Dr. Gottesman, NCI, NIH) was established by a stepwise concentration increase of vinblastine in the culture medium of KB-3-1 cells and subsequently culturing these cells in medium with 1 μg/mL of vinblastine. An ABCC1-overexpressing MDR cell line, KB-CV60, was also derived from KB-3-1 cells and was maintained in medium with 1 μg/mL of cepharanthine and 60 ng/mL of vincristine. Both KB-C2 and KB-CV60 cell lines were kindly provided by Dr. Akiyama (Kagoshima University, Japan). HEK293/pcDNA3.1, ABCG2-482-R5, ABCG2-482-G2, and ABCG2-482-T7 cells were established by selection with 2 mg/mL G418 after transfecting HEK293 with either (1) empty pcDNA3.1 vector or (2) pcDNA3.1 vector containing full length ABCG2 coding either (2a) wild-type arginine (R) or mutant (2b) glycine (G) or (2c) threonine (T) at amino acid position 482, respectively. The wild-type ABCG2-overexpressing drug-resistant cell line MCF-7/Flv1000 was cultured in the medium with 1 μM of flavopiridol. […] Another G482 mutant ABCG2-overexpressing drug resistant cell line, S1-M1-80, was maintained in the medium with 80 μM of mitoxantrone. […] All the cell lines were grown as adherent monolayers in flasks with DMEM (Dulbecco's modified Eagle's medium) culture medium (Hyclone Co.) containing 10% bovine serum at 37° C. in a humidified atmosphere of 5% CO2.
(§7) Cells in 96-well plates were preincubated with or without the reversal agents for 1 h and then different concentrations of chemotherapeutic drugs were added into designated wells. After 68 h of incubation, MTT solution (4 mg/mL) was added to each well, and the plate was further incubated for 4 h, allowing viable cells to change the yellow-colored MTT into dark-blue formazan crystals. Subsequently the medium was discarded, and […] of DMSO was added into each well to dissolve the formazan crystals. The absorbance was determined at 570 nm by an OPSYS MR Microplate Reader from DYNEX Technologies, Inc.

MCF7/ADVP3000 = assay: MTT cytotoxicity/reversal assay (Example 2); format: cell-based; conditions: read-out: IC50 of cisplatin, alone
Experimental: as §6, §7

MCF-7/Flv1000 = assay: MTT cytotoxicity/reversal assay (Example 2); format: cell-based; conditions: read-out: IC50 of cisplatin; MCF-7/Flv1000; alone
Experimental: as §6, §7

MCF-7 = assay: MTT cytotoxicity/reversal assay (Example 2); format: cell-based; conditions: read-out: IC50 of cisplatin, alone
Experimental: as §6, §7

HEK293/pcDNA3 = assay: MTT cytotoxicity/reversal assay (Example 2); format: cell-based; conditions: read-out: IC50 of cisplatin, alone
Experimental: as §6, §7

S1-M1-80 = assay: MTT cytotoxicity/reversal assay (Example 2); format: cell-based; conditions: read-out: IC50 of cisplatin, alone
Experimental: as §6, §7

S1 = assay: MTT cytotoxicity/reversal assay (Example 2); format: cell-based; conditions: read-out: IC50 of cisplatin, alone
Experimental: as §6, §7

KB-C2 = assay: MTT cytotoxicity/reversal assay (Example 2); format: cell-based, human
Experimental: as §6, §7

KB-V1 = assay: MTT cytotoxicity/reversal assay (Example 2); format: cell-based, human
Experimental: as §6, §7

KB-3-1 [3] = assay: MTT cytotoxicity/reversal assay (Example 2); format: cell-based, human
Experimental: as §6, §7

[4] = read-out: IC50 of cisplatin, alone

In the case of `CC(=O)O[C@@]12CO[C@@H]1C[C@H](O)[C@@]1(C)C(=O)[C@H](O)C3=C(C)[C@@H](OC(=O)[C@H](O)[C@@H](NC(=O)OC(C)(C)C)c4ccccc4)C[C@@](O)([C@@H](OC(=O)c4ccccc4)[C@H]21)C3(C)C` [Docetaxel, docetaxel], the “fold-resistance, docetaxel” value (HEK/MRP7) is reported as “(11.31)”, the IC50 at 68 h ([1]; read-out: IC50 of docetaxel) is reported as 64.8 ± 5.19 nM and the “fold-resistance, docetaxel” value (HEK 293-pcDNA-3.1; HEK 293-pcDNA-3.1, alone) is reported as “(1.0)”. It also gave an IC50 (HEK 293-pcDNA-3.1; read-out: IC50 of docetaxel) of 5.73 ± 0.65 nM.
With `O=C(Nc1cccc2c(=O)cc(-c3nn[nH]n3)oc12)c1ccc(OCCCCc2ccccc2)cc1` [ONO-1078] the “fold reversal, vincristine” value (HEK/MRP1 (ABCC1)) was “(5.9)” and the “fold reversal, vincristine” value (HEK293/pcDNA3.1; HEK293/pcDNA3.1 (Table 6), +10 μM reversal agent) was “(1.33)”.
`N.N.[Cl][Pt][Cl]` [Cisplatin, cisplatin] gave an IC50 (KB-3-1 [2]) of 1900 ± 70.9 nM, an IC50 (S1/FLV5000) of 53400 ± 5800 nM and an IC50 (MCF7/ADVP3000) of 31100 ± 3200 nM. For the same compound, the IC50 (MCF-7/Flv1000) was 35100 ± 1860 nM, the IC50 (MCF-7) was 34400 ± 1760 nM and the IC50 (HEK293/pcDNA3) was 1630 ± 170 nM. For the same compound, the IC50 (S1-M1-80) was 18000 ± 2590 nM, the IC50 (S1) was 14700 ± 2230 nM and the IC50 (HEK 293-pcDNA-3.1; read-out: IC50 of cisplatin, HEK 293-pcDNA-3.1, alone) was 1570 ± 85 nM. The IC50 (KB-C2; [4]) was 1730 ± 83 nM, the IC50 (KB-V1; [4]) was 1760 ± 178 nM and the IC50 (KB-3-1 [3]; [4]) was 1740 ± 161 nM. The IC50 (HEK293/pcDNA3.1; read-out: IC50 of cisplatin, HEK293/pcDNA3.1, alone) was 890000 ± 33900 nM.
In the case of `CC[C@]1(O)C[C@@H]2CN(CCc3c([nH]c4ccccc34)[C@@](C(=O)OC)(c3cc4c(cc3OC)N(C)[C@H]3[C@@](O)(C(=O)OC)[C@H](OC(C)=O)[C@]5(CC)C=CCN6CC[C@]43[C@@H]65)C2)C1` [Vinblastine, vinblastine], the “fold-resistance, vinblastine” value (HEK/MRP7) is reported as “(5.03)”, the IC50 at 68 h ([1]; read-out: IC50 of vinblastine) is reported as 56.3 ± 4.61 nM and the “fold-resistance, vinblastine” value (HEK 293-pcDNA-3.1; HEK 293-pcDNA-3.1, alone) is reported as “(1.0)”. The IC50 (HEK 293-pcDNA-3.1; read-out: IC50 of vinblastine) was 11.2 ± 1.23 nM, the “fold-resistance, vinblastine” value (KB-C2; alone) was “(10.3)” and the “fold-resistance, vinblastine” value (KB-V1; alone) was “(120.1)”. For the same compound, the “fold-resistance, vinblastine” value (KB-3-1 [3]; alone) was “(1.0)^c”.
